Results as given in patent US20250011300A1, “PIPERAZINYLSULFONYLARYL COMPOUNDS FOR TREATMENT OF BACTERIAL INFECTIONS” (Hoffmann-La Roche Inc., priority 2021, published 2025).
≈ marks a conversion by molar mass, not a printed value. Like-named read-outs stand apart in the source and are kept apart here.

Legend:
[1] = test system: K. pneumonia (ATCC 43816); test: Minimal Inhibitory Concentration (MIC) assay, K. pneumonia; format: cell-based; conditions: Klebsiella pneumoniae, read-out: MIC K. pneumoniae ATCC43816
Description: (§1) Example 122: Minimal Inhibitory Concentration Protocol (MIC) Assay
(§2) The in vitro potency of compounds to inhibit E. coli (ATCC 25922) and K. pneumonia (ATCC 43816) growth was assessed by MIC (Minimal Inhibitory Concentration) assay. Samples were prepared from 10 mM DMSO stock solutions. After serial 2-fold dilution in DMSO in a master plate (Greiner, Cat No: 651201), 180 μL sterile distilled water was added to 20 μL each aliquot of the samples. Then 10 μL diluted compounds were transferred into a new assay plate (Costar, 3599).
(§3) The growth medium Cation-Adjusted Mueller Hinton Broth (CAMHB) was prepared by adding the 20 mg per liter CaCl2) and 20 mg per liter MgCl2 into the MHB medium (Jianglai Company, sterilized).
(§4) Vials of each of the test microorganisms were maintained frozen in the vapor phase of a liquid nitrogen freezer. The bacteria E. coli ATCC 25922 (KWIKSTIK, 0335K) and K. pneumonia ATCC 43816 were taken out from liquid nitrogen freezer, then thawed in room temperature, and diluted in the CAMHB medium to achieve a final inoculum of 5×10^5 CFU/mL. 90 μL CAMHB with bacteria was dispensed to the assay plate and pipetted 5 times.
(§5) Then the assay plates were incubated for 20 hours at 35° C. in ambient air. Following incubation, the MIC (μg/mL), the lowest concentration of drug that inhibits visible growth of the microorganism was read and recorded throw the microscope.

[2] = test system: E. coli (ATCC 25922); test: Minimal Inhibitory Concentration (MIC) assay, E. coli; format: cell-based; conditions: Escherichia coli, read-out: MIC E. coli ATCC 25922
Description: as §1, §2, §3, §4, §5

[3] = molecular target: Escherichia coli LpxH (UDP-2,3-diacylglucosamine hydrolase) (Escherichia coli (strain K12), UniProt P43341); test: 50% Inhibitory Concentration (IC50) to LpxH, UMP/CMP-Glo Glycosyltransferase Assay kit; format: biochemical
Sequence of Escherichia coli LpxH (UDP-2,3-diacylglucosamine hydrolase) (P43341 whole entry): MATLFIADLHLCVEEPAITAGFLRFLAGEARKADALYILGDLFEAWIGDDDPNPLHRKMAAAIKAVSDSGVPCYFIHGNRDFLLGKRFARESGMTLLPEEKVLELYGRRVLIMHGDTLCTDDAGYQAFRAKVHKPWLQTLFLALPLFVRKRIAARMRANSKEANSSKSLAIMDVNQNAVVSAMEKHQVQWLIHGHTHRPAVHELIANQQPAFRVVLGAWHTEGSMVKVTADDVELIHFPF
Description: Example 121: 50% Inhibitory Concentration (IC50) to UDP-2,3-diacylglucosamine hydrolase (LpxH)
The inhibitory potency of molecules to UDP-2,3-diacylglucosamine hydrolase (LpxH) was determined using the UMP/CMP-Glo™ Glycosyltransferase Assay kit. LpxH hydrolyzes the pyrophosphate bond of UDP-2,3-diacylglucosamine (UDP-DAG) to yield 2,3-diacylglucosamine 1-phosphate (lipid X) and UMP. The assay kit could quantify the UMP production by convert the UMP to ATP and generate light in a luciferase reaction. The compound's effect on the LpxH activity is detected by measuring the light using a luminometer (Envision).

[4] = K. pneumoniae ATCC43816, CAMHB, 20 hours at 35° C.
[5] = ATCC25922, E. coli ATCC 25922, CAMHB, 20 hours at 35° C.

Row | SMILES | MIC [1, 4] | MIC [2, 5] | IC50 [3] | MIC ([1]; ATCC43816, 20 h) | MIC ([2]; ATCC25922, 20 h)
1 | O=C1OC2(CNC2)CN1c1ccc(S(=O)(=O)N2CCN(c3cc(C(F)(F)F)cc(Cl)n3)CC2)cc1 [Example 13] | 2.49 µg/mL (≈ 4.68 µM) | 0.83 µg/mL (≈ 1.56 µM) | 128 nM | – | –
2 | O=C1OC2(CCNCC2)CN1c1ccc(S(=O)(=O)N2CCN(c3cc(C(F)(F)F)cc(Cl)n3)CC2)cc1 [Example 14, 3-[4-[4-[6-Chloro-4-(trifluoromethyl)-2-pyridyl]piperazin-1-yl]sulfonylphenyl]-1-oxa-3,8-diazaspiro[4.5]decan-2-one] | 3.5 µg/mL (≈ 6.25 µM) | 1.75 µg/mL (≈ 3.13 µM) | 96.4 nM | – | –
3 | O=C1O[C@H]2CNC[C@H]2N1c1ccc(S(=O)(=O)N2CCN(c3cc(C(F)(F)F)cc(Cl)n3)CC2)cc1 [Example 15, (3aR,6aS)-3-[4-[4-[6-chloro-4-(trifluoromethyl)-2-pyridyl]piperazin-1-yl]sulfonylphenyl]-4,5,6,6a-tetrahydro-3aH-pyrrolo[3,4-d]oxazol-2-one] | 2.02 µg/mL (≈ 3.8 µM) | 1.01 µg/mL (≈ 1.9 µM) | 95.9 nM | – | –
4 | O=C1O[C@H]2CCNC[C@H]2N1c1ccc(S(=O)(=O)N2CCN(c3cc(C(F)(F)F)cc(Cl)n3)CC2)cc1 [Example 16, (3aR,7aS)-3-[4-[4-[6-chloro-4-(trifluoromethyl)-2-pyridyl]piperazin-1-yl]sulfonylphenyl]-3a,4,5,6,7,7a-hexahydrooxazolo[4,5-c]pyridin-2-one] | 1.03 µg/mL (≈ 1.89 µM) | 1.03 µg/mL (≈ 1.89 µM) | 38.5 nM | – | –
5 | O=C1O[C@@H]2CNCC[C@@H]2N1c1ccc(S(=O)(=O)N2CCN(c3cc(C(F)(F)F)cc(Cl)n3)CC2)cc1 [Example 17, (3aR,7aS)-1-[4-[4-[6-chloro-4-(trifluoromethyl)-2-pyridyl]piperazin-1-yl]sulfonylphenyl]-3a,4,5,6,7,7a-hexahydrooxazolo[5,4-c]pyridin-2-one] | – | – | 482 nM | 3.64 µg/mL (≈ 6.67 µM) | 1.82 µg/mL (≈ 3.33 µM)
6 | O=C1O[C@@H]2CCNC[C@@H]2N1c1ccc(S(=O)(=O)N2CCN(c3cc(C(F)(F)F)cc(Cl)n3)CC2)cc1 [Example 18, (3aS,7aR)-3-[4-[4-[6-chloro-4-(trifluoromethyl)-2-pyridyl]piperazin-1-yl]sulfonylphenyl]-3a,4,5,6,7,7a-hexahydrooxazolo[4,5-c]pyridin-2-one] | 0.91 µg/mL (≈ 1.67 µM) | 0.91 µg/mL (≈ 1.67 µM) | 152 nM | – | –
7 | O=C1O[C@@H]2CCCNC[C@@H]2N1c1ccc(S(=O)(=O)N2CCN(c3cc(C(F)(F)F)cc(Cl)n3)CC2)cc1 [Example 19, (3aS,8aR)-3-[4-[4-[6-chloro-4-(trifluoromethyl)-2-pyridyl]piperazin-1-yl]sulfonylphenyl]-4,5,6,7,8,8a-hexahydro-3aH-oxazolo[4,5-c]azepin-2-one] | 1.05 µg/mL (≈ 1.88 µM) | 1.05 µg/mL (≈ 1.88 µM) | 33.9 nM | – | –
8 | O=C1CC2NCCC2N1c1ccc(S(=O)(=O)N2CCN(c3cc(C(F)(F)F)cc(Cl)n3)CC2)cc1 (stereo not drawn) [Example 20, 4-[4-[4-[6-Chloro-4-(trifluoromethyl)-2-pyridyl]piperazin-1-yl]sulfonylphenyl]-1,2,3,3a,6,6a-hexahydropyrrolo[3,2-b]pyrrol-5-one] | 3.54 µg/mL (≈ 6.68 µM) | 1.77 µg/mL (≈ 3.34 µM) | 62.3 nM | – | –
9 | O=C1OC2C(O)C(CO)OC2N1c1ccc(S(=O)(=O)N2CCN(c3cc(C(F)(F)F)cc(Cl)n3)CC2)cc1 (stereo not drawn) [Example 21, 3-[4-[4-[6-Chloro-4-(trifluoromethyl)-2-pyridyl]piperazin-1-yl]sulfonylphenyl]-6-hydroxy-5-(hydroxymethyl)-3a,5,6,6a-tetrahydrofuro[2,3-d]oxazol-2-one] | 1.81 µg/mL (≈ 3.13 µM) | 0.91 µg/mL (≈ 1.57 µM) | 10.4 nM | – | –
10 | CO[C@@H]1OC(C2OC(=O)N(c3ccc(S(=O)(=O)N4CCN(c5cc(C(F)(F)F)cc(Cl)n5)CC4)cc3)C2C)[C@@H](O)[C@H]1O (stereo partly drawn) [Example 22, 3-[4-[4-[6-Chloro-4-(trifluoromethyl)-2-pyridyl]piperazin-1-yl]sulfonylphenyl]-5-[(3S,4R,5R)-3,4-dihydroxy-5-methoxy-tetrahydrofuran-2-yl]-4-methyl-oxazolidin-2-one] | 1.99 µg/mL (≈ 3.12 µM) | 1.99 µg/mL (≈ 3.12 µM) | < 3.14 nM | – | –
